Tested on: GM-CSF-producing CD4-positive memory T-cells
Assay: GM-CSF-producing CD4-positive memory T-cells in PBMCs of normal subjects after single oral dose (FACS)
Format: in vivo, human
Method: A single dose of compound 31, which is a synthetic glycolipid of the present invention, described in the first aspect, i.e., (2S,3S,4R)-1-O-(α-D-galactosyl)-2-(N-tetracosanoylamino)-1,3,4-nonanetriol represented by the following formula (III), was orally administered to each of subjects of 4 cohorts (A, B, C, and D cohorts) each consisting of 3 normal subjects shown in Table 1 above after obtainment of informed consent.
The dose was set to 0.3 mg per person for A cohort, 1 mg per person for B cohort, 3 mg per person for C cohort, and 10 mg per person for D cohort.
Subsequently, T-cell subfractions were prepared from the peripheral blood of each subject by using the density gradient centrifugation method. First, a total of 20 mL of blood was collected from the vein of each subject 24 hours (1st day), 48 hours (2nd day), 72 hours (3rd day), and 168 hours (7th day) after the administration of compound 31 by using two 10-mL heparin sodium-containing vacuum blood collection tubes. For a control, 20 mL of blood was similarly collected from the vein of each subject one day before the administration of compound 31.
Next, 4 mL of Ficoll-Paque Plus (GE Healthcare Biosciences Corp.) was placed in each of four 15-mL conical tubes, and 10 mL of blood diluted twice with phosphate buffered saline (PBS) was gently layered thereon. Then, density gradient centrifugation was performed by centrifugation at 1800 rpm at ordinary temperature for 30 minutes. After the centrifugation, a supernatant containing plasma and platelet was discarded, and lymphocytes present at the boundary layer between the supernatant layer and the Ficoll-Paque Plus layer were recovered into a fresh 50-mL conical tube. The 50-mL conical tube was filled by adding PBS thereto, followed by centrifugation at 1800 rpm at ordinary temperature for 5 minutes. […] After a supernatant was removed by suction again, a single cell suspension was prepared by adding 1 mL of AIM-V medium (Life Technologies Corp.), and then, the number of cells was measured with a counting chamber. […]

With `CCCCCCCCCCCCCCCCCCCCCCCC(=O)NC(COC1OC(CO)C(O)C(O)C1O)[C@H](O)C(O)CCCCC` (stereo in doubt) [compound 31, (2S,3S,4R)-1-O-(α-D-galactosyl)-2-(N-tetracosanoylamino)-1,3,4-nonanetriol] the “suppressive effects on CD4-positive memory T-cells” value (A cohort, 0.3 mg single oral (low dose)) was “high suppressive effects”, the “growth of GM-CSF-producing CD4-positive memory T-cells” value (C and D cohorts (3 mg, 10 mg), 1 day after administration, transient) was “promoted” and the “proportion of GM-CSF-producing CD4-positive memory T-cells in PBMCs” value (single oral dose, all cohorts (0.3, 1, 3, 10 mg), after administration vs pre-administration value (day-1)) was “decreased”.
